Holding throughout (type): cell-based, human
Assay [1] deals with AKT and survivin expression in MCAS cells. The experiment in a line: Immunoblot of AKT, p-AKT and survivin. Conditions: cisplatin 35 μM 24 h alone. As for the experimental part: (§1) Immunoblotting. […] Bcl-2 (clone 124; Dako Diagnostics AG), Bcl-xL (Transduction Laboratories), actin (Ab-1, CP01, Oncogene) and phospho-Survivin (T34, Novus Biologicals). Mouse antibody against BRCA1-IRIS was generated in our laboratory.
(§2) BRCA1-IRIS overexpression-induced survivin expression is partially PI3′K/AKT-independent. To study this further, MCAS or SK-OV-3 cells were exposed to the PI3′K inhibitor, LY294002 for 24 h or were transfected with BRCA1-IRIS siRNA for 48 h before they were exposed to LY294002 and left for another 24 h. […] Indeed, LY294002 decreased survivin expression in HOSE/vector cells but had little effect in HOSE/IRIS cells (FIG. 3B).
(§3) BRCA1-IRIS downregulation sensitizes ovarian cancer cell lines to cisplatin-induced survivin downregulation and cell death.

Assay [2] deals with BRCA1-IRIS, AKT and survivin expression in HOSE cells. In words: Immunoblot of BRCA1-IRIS, AKT and survivin after cisplatin. Conditions: 24 h.
Excerpt: as §1
Ovarian cancer cells expressing high level of survivin usually are cisplatin-resistant.
(In general: A western blot detects proteins with antibodies after separation by electrophoresis.)

In assay [3] the test system is AKT1, AKT2 and survivin expression in OVCAR-5 cells. In words: Immunoblot of AKT1, AKT2 and survivin. Conditions: OVCAR-5, cisplatin 35 μM 24 h alone.
Excerpt: as §1, §3

Assay [4] has as its system OVCAR-5 cells. The experiment in a line: MTT cell viability after cisplatin. Conditions: OVCAR-5, cisplatin 48 h. The method, then: (§4) MTT and activated caspases 3 and 7 assays. Done using the Cell Titer 96® AQueous One Solution Cell Proliferation Assay (#G3580, Promega) Caspase-Glo 3/7 Assay (#G8091, Promega), respectively as per manufacturer's instructions. Measurements were obtained using optical at 490 nm. Each experiment was done in 8 samples and the whole experiment was repeated 3 separate times. […] As expected, low viability and high level of active caspase3/7 were detected in IGROV-1 (FIG. 5C), showing an IC50 of ˜5 μM.

For assay [5], the system named is IGROV-1 cells. The experiment in a line: MTT cell viability after cisplatin. Particulars: IGROV-1, cisplatin 48 h. As for the experimental part: as §4
Assay [6] deals with SK-OV-3 cells. The experiment in a line: MTT cell viability after cisplatin. Conditions: SK-OV-3, cisplatin 48 h. As for the experimental part:
as §4

The test system of assay [7] is MCAS cells. The experiment in a line: MTT cell viability after cisplatin. Conditions: cisplatin 48 h. The method, then: as §4
Assay [8] concerns HOSE/AKT2 cells. The experiment in a line: MTT cell viability after cisplatin. Conditions: HOSE/AKT2, cisplatin 48 h. An excerpt: (§5) MTT and activated caspases 3 and 7 assays. Done using the Cell Titer 96® AQueous One Solution Cell Proliferation Assay (#G3580, Promega) Caspase-Glo 3/7 Assay (#G8091, Promega), respectively as per manufacturer's instructions. Measurements were obtained using optical at 490 nm. Each experiment was done in 8 samples and the whole experiment was repeated 3 separate times.

Assay [9] concerns HOSE/survivin cells. The experiment in a line: MTT cell viability after cisplatin. Conditions: cisplatin 48 h.
Excerpt: as §5

In assay [10] the test system is HOSE/vector cells. The experiment in a line: MTT cell viability after cisplatin. Particulars: cisplatin 48 h.
Excerpt: as §5

Assay [11] has as its system HOSE/AKT1 cells. The experiment in a line: MTT cell viability after cisplatin. Particulars: HOSE/AKT1, cisplatin 48 h.
Excerpt: as §5

The subject of assay [12] is HOSE/IRIS cells. The experiment in a line: MTT cell viability after cisplatin. Particulars: cisplatin 48 h.
Excerpt: as §5

Assay [13] has as its system HOSE/AKT3 cells. In words: MTT cell viability after cisplatin. Conditions: HOSE/AKT3, cisplatin 48 h.
Excerpt: as §5

The subject of assay [14] is BRCA1-IRIS, AKT and survivin expression in SK-OV-3 cells. In words: Immunoblot of BRCA1-IRIS, AKT, p-AKT and survivin. Particulars: SK-OV-3, cisplatin 35 μM 24 h alone. As for the experimental part: as §1
BRCA1-IRIS-induced survivin expression is partially AKT-dependent. AKT (siRNA silences AKT1 and AKT2), BRCA1-IRIS, survivin or AKT and BRCA1-IRIS were silenced in SK-OV-3 cells (endogenously overexpressing all proteins, see FIG. 1B) for 72 h. […] Survivin silencing had no effect on BRCA1-IRIS or AKTs the expression (FIG. 2G). Identical results were obtained using MCAS cell line.
as §2, §3

For `N.N.[Cl][Pt][Cl]` [cisplatin], the “expression of AKT1, AKT2 and survivin” value in assay [1], in assay [3] and in [14] was “modestly decreased” throughout. For the same compound, the “BRCA1-IRIS, AKT and survivin expression” value in assay [2] (high concentrations cisplatin (>50 μM)) was “abolished”; in [2] (low concentrations cisplatin (≦50 μM)), “triggered”. The concentration for half-maximal inhibition (IC50) (as a rule, the point on the concentration scale where inhibition reaches its midpoint) in assay [4] is roughly 25 µM; in assay [5] it was roughly 5 µM; in assay [6], roughly 40 µM; in assay [7] it was roughly 40 µM; in [8], roughly 75 µM; in assay [9], roughly 75 µM. Also, the IC50 in assay [10] was 15 to 20 µM; in [11] it was roughly 75 µM; in assay [12], roughly 75 µM; in assay [13] it was 15 to 20 µM.

Source of the values: patent US20120083518A1, “Cancer Treatment Targeting BRCA1-IRIS” (priority 2010, published 2012).
